Measurements from patent US10722520B2, “Heterocyclic compounds and their use in preventing or treating bacterial infections” (MUTABILIS, priority 2016, dated 2020).

Assays:
E. cloacae P99 [1] = test: MIC of compound alone, broth microdilution; type: cell-based; conditions: strain P99; compound alone
In short: (§1)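 Visual end point: lowest concentration that blocked growth. Conditions: cation-adjusted Mueller-Hinton broth, 5×10^5 cfu/mL final inoculum of log-phase bacteria, 16-20 h, 35° C, ambient atmosphere.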

E. coli 190317 [2] = test: MIC of compound alone, broth microdilution; type: cell-based; conditions: strain 190317; compound alone
In short: as §1

K. pneumoniae 6299 [3] = test: MIC of compound alone, broth microdilution; type: cell-based; conditions: strain 6299; compound alone
In short: as §1

K. pneumoniae BAA-1898 [4] = test: MIC of compound alone, broth microdilution; type: cell-based; conditions: strain BAA-1898; compound alone
In short: as §1

P. aeruginosa CIP107051 [5] = test: MIC of compound alone, broth microdilution; type: cell-based; conditions: strain CIP107051; compound alone
In short: as §1

E. cloacae P99 [6] = test: MIC of ceftazidime (CAZ) at fixed concentration of compound (synergy), broth microdilution; type: cell-based; conditions: strain P99; MIC of CAZ, compound fixed at 4 μg/mL
Protocol: (§2) Log phase bacterial suspensions were adjusted to a final density of 5×10^5 cfu/mL in cation-adjusted Mueller-Hinton broth (Becton-Dickinson) and added to each well (98 μL). Microplates were incubated for 16-20 h at 35° C. in ambient air. The MIC of the compounds was defined as the lowest concentration of said compounds that prevented bacterial growth as read by visual inspection.

E. coli 190317 [7] = test: as above; type: cell-based; conditions: strain 190317; MIC of CAZ, compound fixed at 4 μg/mL
Protocol: as §2

K. pneumoniae 6299 [8] = test: as above; type: cell-based; conditions: strain 6299; MIC of CAZ, compound fixed at 4 μg/mL
Protocol: as §2

K. pneumoniae BAA-1898 [9] = test: as above; type: cell-based; conditions: strain BAA-1898; MIC of CAZ, compound fixed at 4 μg/mL
Protocol: as §2

P. aeruginosa CIP107051 [10] = test: as above; type: cell-based; conditions: strain CIP107051; MIC of CAZ, compound fixed at 4 μg/mL
Protocol: as §2

AmpC (P99) = AmpC (P99) (Enterobacter cloacae, UniProt P05364); conditions: read-out: IC50 β-lactamase AmpC (P99); class (C); nitrocefin 200 μM, 30-min pre-incubation, enzyme 0.2 nM
CMY-37 = CMY-37 (Citrobacter freundii, UniProt P05193); conditions: read-out: IC50 β-lactamase CMY-37; class (C); nitrocefin 200 μM, 30-min pre-incubation, enzyme 0.2 nM
AmpC (PAE) = AmpC (PAE) (Pseudomonas aeruginosa, UniProt P24735); conditions: read-out: IC50 β-lactamase AmpC (PAE); class (C); nitrocefin 200 μM, 30-min pre-incubation, enzyme 0.4 nM
OXA-15 = OXA-15 (Pseudomonas aeruginosa, UniProt Q51574); conditions: read-out: IC50 β-lactamase OXA-15; class (D); nitrocefin 200 μM, 30-min pre-incubation, enzyme 0.4 nM
TEM-1 = TEM-1 (Escherichia coli, UniProt P62593); conditions: read-out: IC50 β-lactamase TEM-1; class (A); nitrocefin 200 μM, 30-min pre-incubation, enzyme 0.1 nM
SHV-1 = SHV-1 (Klebsiella pneumoniae, UniProt P0AD64); conditions: read-out: IC50 β-lactamase SHV-1; class (A); nitrocefin 200 μM, 30-min pre-incubation, enzyme 0.075 nM
CTX-M-15 = CTX-M-15 (Escherichia coli, UniProt Q9EXV5); conditions: read-out: IC50 β-lactamase CTX-M-15; class (A); nitrocefin 200 μM, 30-min pre-incubation, enzyme 0.4 nM
KPC-2 = KPC-2 (Klebsiella pneumoniae, UniProt Q9F663); conditions: read-out: IC50 β-lactamase KPC-2; class (A); nitrocefin 200 μM, 30-min pre-incubation, enzyme 1 nM
OXA-1 = OXA-1 (Escherichia coli, UniProt P13661); conditions: read-out: IC50 β-lactamase OXA-1; class (D); nitrocefin 200 μM, 30-min pre-incubation, enzyme 0.2 nM
OXA-11 = OXA-11 (Pseudomonas aeruginosa, UniProt Q06778); conditions: read-out: IC50 β-lactamase OXA-11; class (D); nitrocefin 200 μM, 30-min pre-incubation, enzyme 1.2 nM
OXA-48 = OXA-48 (Klebsiella pneumoniae, UniProt Q6XEC0); conditions: read-out: IC50 β-lactamase OXA-48; class (D); nitrocefin 200 μM, 30-min pre-incubation, enzyme 0.3 nM

Row | Compound | MIC compounds of the invention alone (E. cloacae P99 [1]) | MIC compounds of the invention alone (E. coli 190317 [2]) | MIC compounds of the invention alone (K. pneumoniae 6299 [3]) | MIC compounds of the invention alone (K. pneumoniae BAA-1898 [4]) | MIC compounds of the invention alone (P. aeruginosa CIP107051 [5]) | MIC combination of CAZ and compounds of the invention at 4 μg/mL (E. cloacae P99 [6]) | MIC combination of CAZ and compounds of the invention at 4 μg/mL (E. coli 190317 [7]) | MIC combination of CAZ and compounds of the invention at 4 μg/mL (K. pneumoniae 6299 [8]) | MIC combination of CAZ and compounds of the invention at 4 μg/mL (K. pneumoniae BAA-1898 [9]) | MIC combination of CAZ and compounds of the invention at 4 μg/mL (P. aeruginosa CIP107051 [10]) | IC50 (AmpC (P99)) | IC50 (CMY-37) | IC50 (OXA-15) | IC50 (TEM-1) | IC50 (SHV-1) | IC50 (CTX-M-15) | IC50 (KPC-2) | IC50 (OXA-1) | IC50 (OXA-11) | IC50 (OXA-48) | also measured
1 | NCc1cnn(C2=CC3CN(C2)C(=O)N3OS(=O)(=O)[O-])c1.O=C(O)C(F)(F)F.[Na+] (stereo not drawn) [Example 15, sodium and 2,2,2-trifluoroacetate [3-(4-methyleneammoniumpyrazol-1-yl)-7-oxo-1,6-diazabicyclo[3.2.1]oct-3-en-6-yl]sulfate] | 8 mg/L | 2 mg/L | >32 mg/L | >32 mg/L | 16 mg/L | ≤0.25 mg/L | <0.25 mg/L | 0.25 mg/L | ≤0.25 mg/L | 2 mg/L | 0.08 µM | 0.076 µM | 0.049 µM | 0.00079 µM | 0.0065 µM | 0.0015 µM | 0.12 µM | 0.7 µM | 0.27 µM | 0.018 µM | IC50 (AmpC (PAE)): 0.36 µM
2 | sodium (7-oxo-3-(3-(methoxycarbamoyl)-pyrazol-1-yl)-1,6-diazabicyclo[3.2.1]oct-3-en-6-yl) sulfate and sodium (7-oxo-3-(5-(methoxycarbamoyl)-pyrazol-1-yl)-1,6-diazabicyclo[3.2.1]oct-3-en-6-yl) sulfate [Example 27] | 16 mg/L | 8 mg/L | 32 mg/L | 32 mg/L | >32 mg/L | 2 mg/L | 0.25 mg/L | 0.5 mg/L | 16 mg/L | 16 mg/L |  |  | 0.11 µM | 0.0011 µM | 0.0048 µM | 0.0012 µM | 0.01 µM | 0.13 µM | 0.069 µM | 0.0061 µM | 
3 | CC(=O)Nc1cnn(C2=CC3CN(C2)C(=O)N3OS(=O)(=O)[O-])c1.[Na+] (stereo not drawn) [Example 21, sodium [3-(4-acetamidepyrazol-1-yl)-7-oxo-1,6-diazabicyclo[3.2.1]oct-3-en-6-yl]sulfate] | >32 mg/L | 16 mg/L | >32 mg/L | >32 mg/L | >32 mg/L | 16 mg/L | 0.25 mg/L | 4 mg/L | 64 mg/L | 4 mg/L | 0.23 µM | 0.099 µM | 0.29 µM | 0.0061 µM | 0.024 µM | 0.0037 µM | 0.27 µM | 2.1 µM | 1.4 µM | 0.045 µM | IC50 (AmpC (PAE)): 0.32 µM
4 | CN(C)Cc1cn(C2=CC3CN(C2)C(=O)N3OS(=O)(=O)[O-])nn1.[Na+] (stereo not drawn) [Example 59, sodium [3-[4-(dimethylamino)methyltriazol-1-yl]-7-oxo-1,6-diazabicyclo[3.2.1]oct-3-en-6-yl]sulfate] | 2 mg/L | 1 mg/L | >32 mg/L | >32 mg/L | >32 mg/L | <0.25 mg/L | <0.25 mg/L | ≤0.25 mg/L | ≤0.25 mg/L | 8 mg/L | 0.034 µM | 0.072 µM | 0.0066 µM | 0.00069 µM | 0.0025 µM | 0.00055 µM | 0.012 µM | 0.21 µM | 0.17 µM | 0.0012 µM | IC50 (AmpC (PAE)): 0.59 µM
5 | NCCNC(=O)Cc1ccn(C2=CC3CN(C2)C(=O)N3OS(=O)(=O)[O-])n1.O=C(O)C(F)(F)F.[Na+] (stereo not drawn) [Example 48, sodium and 2,2,2-trifluoroacetate [3-[3-[2-(2-ammoniumethylamino)-2-oxo-ethyl]pyrazol-1-yl]-7-oxo-1,6-diazabicyclo[3.2.1]oct-3-en-6-yl]sulfate] | 32 mg/L | 4 mg/L | >32 mg/L | >32 mg/L | >32 mg/L | 0.5 mg/L | <0.25 mg/L | 0.25 mg/L | 4 mg/L | 4 mg/L | 0.11 µM | 0.08 µM | 0.51 µM | 0.0014 µM | 0.0053 µM | 0.0024 µM | 0.13 µM | 0.94 µM | 0.2 µM | 0.036 µM | IC50 (AmpC (PAE)): 0.31 µM
6 | sodium [3-[3-[2-[tert-butyl(dimethyl)silyl]oxyethyl]pyrazol-1-yl]-7-oxo-1,6-diazabicyclo[3.2.1]oct-3-en-6-yl]sulfate [Example 69] | 32 mg/L | 4 mg/L | 32 mg/L | 32 mg/L | >32 mg/L | 1 mg/L | ≤0.25 mg/L | 1 mg/L | 64 mg/L | 8 mg/L |  |  | 0.23 µM | 0.00061 µM | 0.0023 µM | 0.00095 µM | 0.032 µM | 0.31 µM | 0.12 µM | 0.014 µM | 
